Laboratory results taken from patent publication US11376247B2, “Tyrosine kinase inhibitors regenerate non-cancerous tissue after cancer therapy” (THE REGENTS OF THE UNIVERSITY OF COLORADO, A BODY CORPORATE, priority 2017, dated 2022).

Key:
salivary gland function = assay: Saliva production in mice after single dose head and neck IR; type: in vivo
Protocol: The star indicates time of IR treatment. Three TKI dosing regimens were used, where times of delivery is indicated by the filled circles. Mice were treated with the specific TKI 1 hour prior to delivery of IR (pre), 1 hour prior and 3 hours post IR (pre/post), or 3 and 6 hours post (post/post). Saliva production was assayed prior to IR (day 0) and at 60 days after IR as described in Examples. […] Saliva was collected […]. as described in Examples. Salivary production (saliva weight/animal weight) for each cohort of mice was normalized against the saliva production for vehicle treated mice to generate the data shown.
(§1) The star indicates time of IR treatment; while TKI delivery is indicated by the filled circles and arrows indicate time of saliva collection. Mice were dosed 1 hour prior and 3 hours post IR (pre/post), or pre/post plus twice a week for the duration of the experiment. Saliva production was assayed prior to IR (day 0) and at 30, 60, 90, 120 and 150 days after IR. Mice received vehicle alone, 15 Gy IR plus vehicle, or IR plus dasatinib as indicated. Saliva production (saliva weight/animal weight) for each cohort of mice was normalized against the production for vehicle-treated mice to generate the data shown in FIG. 3B. […] Salivary glands from mice in each group (n=2) were removed, formalin fixed and paraffin embedded. Immunohistochemistry for AQPN5 and H&E staining was performed on salivary glands from each mouse. […] Images were captured using an Olympus BX51 scope and Olympus DP72 camera with a 20× objective. Solid arrows indicate acinar cells while dashed arrows mark salivary gland ducts.
The schematic in FIG. 2A depicts the 3 dosing regimens used for the experiments in FIG. 2.
(§2) C57Bl/6 and athymic nude female mice were purchased from Jackson Laboratories (Bar Harbor, Me., USA). For single dose IR, mice were anesthetized by intraperitoneal (i.p.) injection of […] Avertin (Sigma), immobilized within a 50-mL conical tube, and a single dose of IR (10 or 15 Gy) was delivered to the head and neck using a Caesium-137 source. For fractionated IR, mice received 5 fractions of 6 Gy (tumor study) or 4 Gy (saliva production) on 5 consecutive days.
Saliva was collected immediately following i.p. injection of 0.1 mg/kg carbachol (Sigma) in saline (0.9% NaCl). Whole saliva was collected for 3 mins from the lower cheek pouch using a suction device and expressed as mg (saliva)/g (mouse weight).

SMG acinar cells = assay: Salivary gland histology (H&E, AQPN5 immunohistochemistry) 150 days after IR; type: in vivo, mice; settings: 15 Gy IR, continuous dasatinib
Protocol: as §1, with “indicated.” for “indicated. Saliva production (saliva weight/animal weight) for each cohort of mice was normalized against the production for vehicle-treated mice to generate the data shown in FIG. 3B.”, “Solid arrows indicate acinar cells while dashed arrows mark salivary gland ducts.” left out
For tissue analysis, salivary glands were formalin fixed, paraffin embedded, and sectioned at […]. Tissue sections were stained with haematoxylin-eosin (H&E) and aquaporin 5 (AQPN5) was detected by immunohistochemistry (Abcam). Stained slides were archived and analyzed using the Aperio Digital Pathology System and ImageScope software (Leica Biosystems). For AQPN5, the number of positive stained pixels was quantified using the Positive Pixel algorithm in three representative sections, cut 50 micrometers apart, of both full submandibular salivary glands from two mice per treatment group, for a total of […] per group. […]

ParC5 cells = assay: IR-induced apoptosis, caspase-3/7 activity in salivary gland acinar cells; type: cell-based, rat; settings: TKI pretreatment 30 min, 10 Gy IR, 18 hours after IR
Protocol: Whole cell lysates were resolved with SDS-PAGE and analyzed using phospho-specific antibodies that recognize PKC-delta pY64, pY155 or pT505. Membranes were stripped and probed for total PKC-delta and actin to determine loading. Each experiment was done a minimum of three times; representative immunoblots are shown. […] Caspase-3/7 activity was assayed as described in the Examples. Data shown is the average of triplicate samples from a representative experiment plus and minus the S.D. (error bars). The experiment was repeated three times, *=p<0.05 for caspase activity compared to cells expressing shScr. An immunoblot showing depletion of PKC-delta is shown below. […] The data are the average of triplicate measurements from a representative experiment plus the S.D. (error bars). Each experiment was repeated three times. *=p<0.05 for caspase activity compared to cells treated with IR alone. […] Inhibition of c-Src and c-Abl was determined by probing for their respective activation sites pY416 (c-Src) and pY412 (c-Abl). […]
Phosphorylation of PKC-delta at T505 is seen within 1 hour after IR, while phosphorylation at Y64 and Y155 are detectable by 2 hours post IR and continue to increase until at least 6 hours (FIG. 1A). […] Active caspase-3/7 was detected using the Caspase-3/7 Cellular Activity Assay Kit PLUS (Biomol, Farmingdale, N.Y.) according to the manufacturer's instructions.

[1] = test system: PKC-delta, c-Src, c-Abl in ParC5 cells; assay: Immunoblot for PKC-delta pY64/pY155, c-Src pY416 and c-Abl pY412 after H2O2; type: cell-based, rat; settings: TKI 30 min, then 5 mM H2O2 30 min
[2] = test system: FaDu derived xenograft tumors; assay: FaDu flank xenograft tumor growth with fractionated IR; type: in vivo, nude mice
Protocol: as §2

PKC-delta = settings: in response to DNA damaging agents; previously shown; cited from earlier work

| SMILES | saliva production, % of vehicle treated controls (salivary gland function; 15 Gy IR, dasatinib 20 mg/kg pre/post, 60 days post IR (FIG. 2B)) [%] | saliva production, % of vehicle treated mice (salivary gland function; 15 Gy IR, dasatinib pre/post only, 30 and 60 days (FIG. 3B)) [%] | saliva production, % of vehicle treated controls (salivary gland function; 15 Gy IR, dasatinib pre/post plus twice a week (continual), 90 days) [%] | saliva production, % of vehicle treated controls (salivary gland function; 15 Gy IR, dasatinib pre/post plus twice a week (continual), 120 days) [%] | saliva production, % of vehicle treated controls (salivary gland function; 15 Gy IR, dasatinib pre/post plus twice a week (continual), 150 days) [%] | protection of salivary gland function compared to vehicle only treated mice (salivary gland function; IR plus dasatinib, all 3 protocols (pre, pre/post, post/post), 60 days (FIG. 2D)) [%] | AQPN5 staining in the SMGs, % of vehicle treated mice (SMG acinar cells) [%] | IR-induced apoptosis (caspase-3/7 activity) (ParC5 cells) | inhibition of Y155 versus Y64 phosphorylation of PKC-delta [1] | inhibition of c-Abl versus c-Src [1] | saliva production, % of vehicle control (salivary gland function; IR plus imatinib, one dose prior to IR (pre), 60 days (FIG. 2E)) [%] | tumor growth, TKI added to fractionated IR ([2]; 5 x 6 Gy IR, dasatinib 20 mg/kg or imatinib 50 mg/kg pre/post each fraction) | tumor growth, TKI alone compared to respective controls ([2]; dasatinib 20 mg/kg or imatinib 50 mg/kg alone, no IR) | phosphorylation of PKC-delta at Y64 and Y155, nuclear translocation of PKC-delta, and apoptosis (PKC-delta) |
| --- | --- | --- | --- | --- | --- | --- | --- | --- | --- | --- | --- | --- | --- | --- |
| Cc1nc(Nc2ncc(C(=O)Nc3c(C)cccc3Cl)s2)cc(N2CCN(CCO)CC2)n1 [dasatinib] | 65 | 70 | 74 | 69 | 82 | ~100 | 93 | – | – | – | – | – | – | – |
| Cc1ccc(NC(=O)c2ccc(CN3CCN(C)CC3)cc2)cc1Nc1nccc(-c2cccnc2)n1 [imatinib] | – | – | – | – | – | – | – | inhibits IR-induced apoptosis | slightly more potent inhibitors of Y155 phosphorylation than Y64 phosphorylation | more potent inhibition of c-Abl than c-Src | 63 | no effect on tumor growth | trend towards reduced tumor growth | block |
